Laboratory results taken from article PMC4578337, “New depsidones and isoindolinones from the mangrove endophytic fungus Meyerozyma guilliermondii (HZ-Y2) isolated from the South China Sea” (Beilstein Journal of Organic Chemistry, 2015).

What was measured:
α-glucosidase [1] = target: T1, α-glucosidase (Saccharomyces cerevisiae, UniProt P53341); experiment: kinetic analysis of the inhibition of α-glucosidase; format: biochemical; conditions: Figure 4
Description: (§1) Biological assays. The assays for α-glucosidase and MptpB inhibition inhibitory activities were carried out as described previously.

α-glucosidase [2] = target: T1, α-glucosidase; experiment: α-glucosidase inhibitory activity assay; format: biochemical; conditions: qualitative statement
Description: as §1

T1 sequence (P53341 whole entry): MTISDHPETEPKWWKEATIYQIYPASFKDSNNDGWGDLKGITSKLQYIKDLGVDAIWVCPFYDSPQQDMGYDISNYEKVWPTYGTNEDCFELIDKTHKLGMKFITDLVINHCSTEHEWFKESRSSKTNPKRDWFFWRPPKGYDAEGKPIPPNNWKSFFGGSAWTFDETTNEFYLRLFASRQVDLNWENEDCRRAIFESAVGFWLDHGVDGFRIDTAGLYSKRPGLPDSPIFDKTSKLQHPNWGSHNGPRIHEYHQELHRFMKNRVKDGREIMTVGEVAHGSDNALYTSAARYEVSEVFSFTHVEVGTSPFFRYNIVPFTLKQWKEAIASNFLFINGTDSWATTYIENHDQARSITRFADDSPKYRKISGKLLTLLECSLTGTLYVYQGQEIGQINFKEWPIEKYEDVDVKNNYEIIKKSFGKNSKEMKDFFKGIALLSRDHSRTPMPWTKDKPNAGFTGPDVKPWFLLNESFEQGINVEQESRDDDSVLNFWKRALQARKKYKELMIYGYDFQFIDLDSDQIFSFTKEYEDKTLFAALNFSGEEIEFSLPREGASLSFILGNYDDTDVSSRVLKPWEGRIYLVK

Structure (SMILES)	type of α-glucosidase inhibition (kinetic studies) (α-glucosidase [1])	α-glucosidase inhibitory activity (in words) (α-glucosidase [2])
Cc1cc(O)c(C)c2c1Oc1c(O)c(O)cc(C)c1C(=O)O2 [Compound 2, Botryorhodine F]	noncompetitive inhibitors	
Cc1cc(O)cc2c1Oc1c(CO)c(O)cc(C)c1C(=O)O2 [Compound 6, botryorhodine D]	noncompetitive inhibitors	
O=C(O)CCCCN1Cc2c(O)cc(O)cc2C1=O [Compound 7, Meyeroguilline A]		promising α-glucosidase inhibitory activity
O=C1NCc2c(O)cc(O)cc21 [Compound 8, 4,6-dihydroxy-2,3-dihydro-1H-isoindol-1-one]		moderate to weak activities
O=C1NC(=O)c2c(O)cc(O)cc21 [Compound 10, 4,6-dihydroxy-1H-isoindole-1,3(2H)-dione]		moderate to weak activities
